Measurements reported in US20180171411A1, “GFRalpha1 AS A BIOMARKER FOR CISPLATIN-INDUCED CHEMORESISTANCE AND METASTASIS” (THE BOARD OF REGENTS OF THE UNIVERSITY OF TEXAS SYSTEM, priority 2015, published 2018).

Key:
MG-63 cells = test: Transmission electron microscopy of autophagic vacuoles; format: cell-based, human; conditions: control MG-63 cells; cisplatin 20 μM, 24 hr
Description: (§1) FIG. 3. GFRα1-induced autophagy enhances the chemoresistance of osteosarcoma cells induced by cisplatin. (a) Control and GFRα1-deficient MG-63 cells were transiently transfected with a mRFP-GFP tandem fluorescent-tagged LC3 (mRFP-GFP-LC3) vector and then treated with cisplatin (20μM) for 24 hr. Left, representative images of RFP-LC3 and GFP-LC3 puncta. Scale bar, 20 μm. Right, quantitative analysis of the number of yellow puncta and the number of RFP-LC3 puncta in the combined images. The values are represented as a mean±s.d.m. (n=3). ** denotes p<0.05 by t-test. (b) Control and GFRα1-deficient MG-63 cells were treated with cisplatin (20 μM) for 24 hr and then stained with acridine orange. […] Bottom, quantitative analysis of the number of AVOs. […] (c) Control and GFRα1-deficient MG-63 cells were treated with cisplatin (20 μM) for 24 hr and then analyzed by TEM. Top, representative images of autophagic vacuoles (yellow arrows) detected after cisplatin treatment in control MG-63 cells. […] Bottom, quantitative analysis of the number of autophagic vacuoles. […] (e) Quantitative analysis of the number of yellow puncta and the number of RFP-LC3 puncta in control and GFRα1-overexpressing MG-63 cells. […] Bottom, quantitative analysis of the number of AVOs. […] (h) Control and GFRα1-overexpressing MG-63 cells were treated with cisplatin (20 μM) for 24 hr and then analyzed by TEM. […]

[1] = tested on: LC3-II in GFRα1-overexpressing MG-63 cells; test: Immunoblot of LC3-II in GFRα1-overexpressing cells; format: cell-based, human; conditions: 3-MA (10 μM) or Baf (100 nM)
Description: as §1

| SMILES | number of autophagic vacuoles per cell (MG-63 cells) | level of LC3-II expression [1] |
| --- | --- | --- |
| N.N.[Cl][Pt][Cl] [cisplatin, Cis-Diamineplatinum(II) dichloride] | markedly increased |  |
| Cn1cnc(N)c2ncnc1-2 [3-MA, 3-methyladenine] |  | reduced |
